Test results taken from patent US11897969B2, “Inhibition of oxidation-specific epitopes to treat ischemic reperfusion injury” (The Regents of the University of California, priority 2017, dated 2024).
Several values for one entry are separate records, joined by “and”; a condition that tells them apart may be missing. Equal values may be shown once.

Legend:
[1] = test system: neonatal rat cardiomyocytes (NNCM); assay: In vitro OxPC treatment and assessment of cell viability (calcein-AM / ethidium homodimer-1); assay type: cell-based; conditions: 4 hours
From the text: Cell culture of rat cardiomyocytes. All animal experiments performed conform to the NIH guidelines regarding animal experimentation. Neonatal rat cardiomyocytes (NNCM) were isolated from 1-2 day old Sprague-Dawley rat pups. Whole hearts were excised from rat pups by midline sternotomy after cervical dislocation. Hearts were washed and minced to adequately break up macroscopic structures before re-washing with cold filter sterilized phosphate buffered saline (PBS) containing 10 g/L of glucose to remove red blood cells and debris. Repeated enzymatic digestion of heart fragments was performed with collagenase (740U), trypsin (370U), and DNase (2880U) (Worthington Biochemical) agitating at 35° C. for three 10-minute and three 7-minute digestions. Digested supernatant solutions were centrifuged into a cell pellet and then separation of cell types using a Percoll® (GE Healthcare) gradient of 1.05, 1.06, and 1.082 g/mL allowed for a layer enriched with myocytes to be isolated. To remove fibroblasts, the cells were pre-plated on non-coated 150 mm culture plates for 45 min. Purified NNCM (95% pure by sarcomere staining) were then transferred to sterile tissue culture plates at a cell density of 1.75×10^6/35-mm plate. Collagen-coated glass coverslips in 24-well tissue culture plates were used for microscopy analysis and NNCM were plated at 3.2×10^5/well. Cells were incubated overnight in Dulbecco's Modified Eagle Medium/Ham's nutrient mixture F-12 (1:1) containing 2 mM glutamine, 3 mM NaHCO3, 15 mM HEPES, and […] gentamycin (DMEM/F12) plus 10% fetal bovine serum (FBS). DMEM/F12 with 10% FBS was changed to serum-free DMEM/F12 (DFSF) the following day. Control solution consisted of 140 mM NaCl, 6 mM KCl, 1.25 mM CaCl2, 6 mM HEPES, and 10 mM D-glucose buffered to pH 7.4, ischemic solution was buffered to pH 6.0, and consisted of the same components, except 8 mM KCl was added and no D-glucose was added. The ischemic buffer was purged of oxygen by bubbling 95% N2 and 5% CO2 gas into the medium for 1 hour before being applied to cells. A hypoxic chamber designed for storage in a 37° C. water jacketed tissue culture incubator was used to maintain an atmosphere of 95% N2 and 5% CO2 gas conditions for 18 hours overnight. Reperfusion was achieved by applying control buffer to cells for 4 hours in a normal culture incubator. After the treatment, cells were scraped off into a small portion of PBS. Cardiomyocyte cell lysates were subjected to Western Blot analysis.
In vitro OxPC treatment and assessment of cell viability. Fresh DFSF was applied to NNCM on glass cover-slips and supplemented with 1, 2, 5, and 10 μM concentrations of OxPL lipids sonicated into PBS, forming micelles. Four OxPL species, POVPC, PONPC, PGPC, and PAzPC were applied to NNCM plates for 4 hours and compared to a non-oxidized PC standard PSPC. Plates were then washed with PBS before NNCM were analyzed for cell viability using vital dyes, calcein-acetoxymethyl ester (AM) and ethidium homodimer-1 (Invitrogen). Mitochondrial permeability after exposure to OxPL molecules was monitored by fluorescence microscopy using a solution of calcein-AM fluorescent dye with cobalt chloride (CoCl2) applied to cardiomyocytes cultured on glass coverslips.

[2] = test system: neonatal rat cardiomyocytes (NNCM); assay: Neutralization of OxPL by E06: OxPL-induced cardiomyocyte cell death with E06 co-treatment; assay type: cell-based; conditions: 5 μM lipid alone, 2 hrs
From the text: Cell culture of rat cardiomyocytes. All animal experiments performed conform to the NIH guidelines regarding animal experimentation. Neonatal rat cardiomyocytes (NNCM) were isolated from 1-2 day old Sprague-Dawley rat pups. Whole hearts were excised from rat pups by midline sternotomy after cervical dislocation. Hearts were washed and minced to adequately break up macroscopic structures before re-washing with cold filter sterilized phosphate buffered saline (PBS) containing 10 g/L of glucose to remove red blood cells and debris. Repeated enzymatic digestion of heart fragments was performed with collagenase (740U), trypsin (370U), and DNase (2880U) (Worthington Biochemical) agitating at 35° C. for three 10-minute and three 7-minute digestions. Digested supernatant solutions were centrifuged into a cell pellet and then separation of cell types using a Percoll® (GE Healthcare) gradient of 1.05, 1.06, and 1.082 g/mL allowed for a layer enriched with myocytes to be isolated. To remove fibroblasts, the cells were pre-plated on non-coated 150 mm culture plates for 45 min. Purified NNCM (95% pure by sarcomere staining) were then transferred to sterile tissue culture plates at a cell density of 1.75×10^6/35-mm plate. Collagen-coated glass coverslips in 24-well tissue culture plates were used for microscopy analysis and NNCM were plated at 3.2×10^5/well. […]
In vitro OxPC treatment and assessment of cell viability. […] Plates were then washed with PBS before NNCM were analyzed for cell viability using vital dyes, calcein-acetoxymethyl ester (AM) and ethidium homodimer-1 (Invitrogen). Mitochondrial permeability after exposure to OxPL molecules was monitored by fluorescence microscopy using a solution of calcein-AM fluorescent dye with cobalt chloride (CoCl2) applied to cardiomyocytes cultured on glass coverslips.
To evaluate the effect of neutralizing OxPL on cell viability, the IgM E06 antibody was used at a concentration of 10 μg/mL within cell culture. […] Cell viability was assessed as described above. […] Images were assessed using Adobe Photoshop CS5.1 Software.

[3] = Binding properties of E06-scFv secreted into HEK293 culture supernatant; conditions: E06-scFv in HEK293 culture supernatant
From the text: (§1) Generation and characterization of E06-scFv transgenic mice. The generation of transgenic C57BL/6 mice expressing the T15/E06 idiotype as a single chain variable antibody fragment—termed E06-scFv-Tg. In brief, the cDNAs encoding E06 variable regions of the heavy and light chains were linked with a 15-amino acid peptide by overlapping PCR, and cloned into an expression vector pSecTag2A (Invitrogen) containing a murine Ig kappa-chain leader sequence for secretion and c-myc and polyHis as epitope tags. […] The same construct was then cloned into the liver-specific expression vector pLiv7 and used to generate transgenic (Tg) mice in the C57BL/6 background expressing the E06-scFv transgene driven by the apoE promoter. Offspring were screened both for plasma E06-scFv titer and integration of the transgene by PCR amplification of the tail DNA. The transgenic E06-scFv founder lines were bred with each other to generate “homozygous” transgenic mice, and in turn, these were crossed into Ldl^−/− mice on the C57BL/6 background. All animals were genotyped for E06-scFv and Ldlr^−/−, respectively and plasma assayed to confirm expression of the E06-scFv by immunoassay. The E06-scFv mRNA was strongly expressed in liver, peritoneal macrophages and spleen, and to a lesser extent in heart. Plasma levels of the E06-scFv averaged 20-30 μg/ml in these studies.

E06-scFv-Tg/Ldlr−/− mice = assay: Myocardial ischemia-reperfusion (LAD ligation), histologic infarct size in E06-scFv-Tg/Ldlr−/− mice; assay type: in vivo, mouse
From the text: as §1
Adult (18-20-week-old) E06-scFv-Tg/Ldlr^−/− mice or Ldlr^−/− mice weighing 16-40 grams, were anesthetized with a mixture of Ketamine (50 mg/kg) and Xylazine (5 mg/kg) and 1.0% isoflurane. Mice were intubated with a pressure ventilator (Kent Scientific, PhysioSuite. Peak inspiration pressure was ˜13 cm H2O and inspiration rate 100-110. The skin over the mid thorax was shaved and cleansed with Betadine or Chlorhexidine solution. A skin incision was made from the midsternal line toward the left armpit, and the chest opened with a 1 cm lateral cut along the left side of the sternum, cutting between the 3rd and 4th ribs to expose the left ventricle of the heart. The ascending aorta and main pulmonary artery were identified; the left anterior descending (LAD) coronary artery was located as it traverses the anterior wall of the heart, between the left and right ventricles. LAD coronary artery occlusion was performed by tying an 8-0 prolene suture ligature on a piece of 2-0 silk suture. Occlusion of the artery was assessed by blanching of the territory of perfusion of the LAD coronary artery, along with acute ST segment elevation on limb-lead electrocardiographic leads. Following an ischemic period of 60 minutes, the suture was removed from around the LAD coronary artery. […]
Histologic assessment of infarct size. […] The sizes of AAR and infarct area (IA) were quantified by computerized planimetry using ImageJ. […]

[4] = Plasma levels of E06-scFv in transgenic mice (immunoassay); assay type: in vivo, mouse; conditions: transgenic mice constitutively expressing E06-scFv (apoE promoter)
From the text: as §1

[5] = E06-scFv-Tg/Ldlr−/− mice, 7 days after 60 minutes LAD ischemia and reperfusion
[6] = E06-scFv-Tg/Ldlr−/− vs Ldlr−/− mice, 7 days after IR

Molecule	cell death ([1]; 1 μM lipid) [%]	cell death ([1]; 2 μM lipid) [%]	cell death ([1]; 5 μM lipid) [%]	cell death without E06 [2] [%]	cell death ([1]; 10 μM lipid) [%]	binding properties compared with intact E06 [3]	IA/AAR (infarct area as percentage of area at risk) (E06-scFv-Tg/Ldlr−/− mice; [5]) [%]	IA/LV (infarct area as percentage of left ventricle) (E06-scFv-Tg/Ldlr−/− mice; [5]) [%]	smaller IA/AAR compared to Ldlr−/− mice (E06-scFv-Tg/Ldlr−/− mice; [6]) [%]	smaller IA/LV compared to Ldlr−/− mice (E06-scFv-Tg/Ldlr−/− mice; [6])	plasma levels of E06-scFv [4] [ng/mL]
CCCCCCCCCCCCCCCC(=O)OC[C@H](COP(=O)([O-])OCC[N+](C)(C)C)OC(=O)CCCCCCCC=O [PONPC, 1-palmitoyl-2-(9-oxo)nonanoyl-sn-glycero-3-phosphocholine]	28.3±8.9	42.0±6.2	70.0±18.6	25.3±3.4							
CCCCCCCCCCCCCCCC(=O)OC[C@H](COP(=O)([O-])OCC[N+](C)(C)C)OC(=O)CCCC=O [POVPC, 1-palmitoyl-2-(5-oxovaleroyl)-sn-glycero-3-phosphocholine]				22.6±4.14	68.6±14.8						
CCCCCCCCCCCCCCCCCC(=O)O[C@H](COC(=O)CCCCCCCCCCCCCCC)COP(=O)([O-])OCC[N+](C)(C)C [PSPC]	7.6±5.1	9.1±10.5	10.5±1.6	6.2±1.6	5.5±1.6						
E06-scFv: single chain variable antibody fragment of E06 (heavy and light variable regions joined by 15-amino acid linker), expressed in transgenic mice (protein) scFv: DAAQPARRAVRSLDIVMTQSPSSLSVSAGKKVTISCTASESLYSSKHKVHYLAWYQKKPEQSPKLLIYGASNRYIGVPDRFTGSGSGTDFTLTISSVQVEDLTHYYCAQFYSYPLTFGAGTKLEIKGGGGSGGGGSGGGGSEVKLVESGGGLVQPGGSLRLSCATSGFTFSDFYMEWVRQAPGKRLEWIAASRNKANDYTTEYADSVKGRFIVSRDTSQSILYLQMNALRAEDTAIYYCARDYYGSSYWYFDVWGAGTTVTVSSRGGPEQKLISEEDLNSAVD						mimic those of the intact E06	47.7±17.6	16.3±7.5	65.9	58.8% and 58.5%	20000 to 30000
